For 13 molecules, TGI and GI50 results are on record in PubChem BioAssay (NCI).

Test systems include SF-295 CNS; TK-10 renal; PC-3 prostate; MDA-MB-231 breast; HT29 colon; BT-549 breast; CCRF-CEM leukemia; SNB-19 CNS; SK-MEL-28 melanoma; OVCAR-3 ovarian.
Common to all, as to assay: inhibition of tumour cell growth, NCI panel, 48 h

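Assay format: 96-well plates, 48-hour exposure. Abbreviation: GI50, concentration required for 50% inhibition of growth. Definition used: TGI = concentration required for complete inhibition of growth.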 Where a SMILES comes first, the peptide text is derived from it. The star is where a group is joined. Boc = CC(C)(C)OC(=O)*

For the molecule `C=C1C(=O)O[C@H]2C/C(C)=C/CC/C(C)=C/CC[C@@](C)(O)[C@@H](I)C[C@@H]12`, the TGI in the assay with SF-295 CNS came to 32.8 µM; with TK-10 renal, 23.6 µM; with PC-3 prostate, 21.1 µM; in the assay with MDA-MB-231 breast it was 26.9 µM; in the assay on HT29 colon, 26.8 µM; in the assay on BT-549 breast, 6.62 µM. For the same molecule, the TGI in the assay on CCRF-CEM leukemia is 5.4 µM; in the assay with SNB-19 CNS, 30 µM; in the assay with SK-MEL-28 melanoma, 30 µM; in the assay on OVCAR-3 ovarian, 24.9 µM.

For `CCOC(=O)c1c2c(n(-c3ccc(OC)cc3)c1C)C(=O)C(=O)c1ccccc1-2`, the TGI is 3.17 µM in the assay on SF-295 CNS; 3.33 µM with TK-10 renal; 5.7 µM in the assay with PC-3 prostate; 4.37 µM with MDA-MB-231 breast; over 22.7 µM in the assay on HT29 colon; 4.32 µM in the assay on BT-549 breast. The TGI in the assay with CCRF-CEM leukemia was over 100 µM; in the assay on SNB-19 CNS, 19 µM; with SK-MEL-28 melanoma it was 3.89 µM; with OVCAR-3 ovarian, 1.34 µM.

Regarding `Cc1cccc2nc3cccc(C(=O)NCCC[N+](C)(CCCNC(=O)c4cccc5nc6cccc(C)c6nc45)Cc4c([N+](=O)[O-])ncn4C)c3nc12`, the GI50 in the assay on SF-295 CNS was 25 µM; with TK-10 renal, 118 µM; in the assay with PC-3 prostate, 6.47 µM; in the assay on MDA-MB-231 breast, over 1100 µM; in the assay with HT29 colon it was 1.96 µM; with SK-MEL-28 melanoma, 403 µM. Also, the TGI was over 1100 µM in the assay on SF-295 CNS; over 1100 µM in the assay on TK-10 renal; over 1100 µM in the assay on PC-3 prostate; over 1100 µM in the assay with MDA-MB-231 breast; 96.5 µM with HT29 colon; over 1100 µM in the assay with BT-549 breast. Besides, the TGI in the assay with CCRF-CEM leukemia, with SNB-19 CNS, with SK-MEL-28 melanoma and in the assay on OVCAR-3 ovarian was over 1100 µM throughout.

Turning to `Cc1cc(=O)n2nc(CSc3nnc(N)s3)sc2n1`, the TGI in the assay on SF-295 CNS, with TK-10 renal, with PC-3 prostate, in the assay on MDA-MB-231 breast, in the assay on HT29 colon and with BT-549 breast was over 100 µM each time. Moreover, the TGI with CCRF-CEM leukemia, with SNB-19 CNS, with SK-MEL-28 melanoma and in the assay with OVCAR-3 ovarian was over 100 µM in each case.

`COC(=O)C(Cc1c[nH]c2ccccc12)NC(=O)C(Cc1c[nH]c2ccccc12)NC(=O)C(Cc1c[nH]c2ccccc12)NC(=O)C(Cc1c[nH]c2ccccc12)NC(=O)OC(C)(C)C` (stereo not drawn) (Boc-WWWW-OMe; configuration not given here): the TGI was over 100 µM in the assay on TK-10 renal; 96.5 µM in the assay on PC-3 prostate; over 100 µM with MDA-MB-231 breast; 49 µM with HT29 colon; 70.2 µM in the assay with BT-549 breast; 34.3 µM in the assay on CCRF-CEM leukemia. The TGI is over 100 µM in the assay with SNB-19 CNS, over 100 µM with SK-MEL-28 melanoma and 40.2 µM in the assay with OVCAR-3 ovarian.

As for `COC(=O)c1ccc(CCc2cc(O)ccc2O)cc1`, the TGI was over 70.5 µM in the assay on SF-295 CNS; 45.8 µM with TK-10 renal; 17.5 µM with PC-3 prostate; 29.9 µM in the assay with MDA-MB-231 breast; over 79.9 µM in the assay with HT29 colon; 25.6 µM in the assay on BT-549 breast. For the same molecule, the TGI in the assay on CCRF-CEM leukemia was over 26.8 µM; in the assay on SNB-19 CNS, over 62.7 µM; in the assay on SK-MEL-28 melanoma it was 42.2 µM; in the assay with OVCAR-3 ovarian it was 12.1 µM.

For `CC(=Nc1c2ccccc2nc2ccccc12)N(C)C`, the TGI with SF-295 CNS was over 100 µM; in the assay with TK-10 renal, over 100 µM; in the assay with PC-3 prostate, 46.8 µM; in the assay on MDA-MB-231 breast, 30.4 µM; in the assay with HT29 colon, 27.4 µM; in the assay with BT-549 breast, 90.7 µM. In addition, the TGI in the assay on CCRF-CEM leukemia is over 100 µM; in the assay on SNB-19 CNS it was over 100 µM; in the assay with SK-MEL-28 melanoma, 61.5 µM; in the assay on OVCAR-3 ovarian, 46.5 µM.

For the molecule `C[C@H](CC[C@@H](O)C(C)(C)O)[C@H]1CC[C@@]2(C)[C@@H]3CC=C4[C@@H](CC[C@H](O)C4(C)C)[C@]3(C)C(=O)C[C@]12C`, the TGI in the assay with SF-295 CNS was over 50 µM; with TK-10 renal, over 50 µM; with PC-3 prostate, 45.4 µM; with MDA-MB-231 breast it was over 50 µM; in the assay on HT29 colon, over 50 µM; in the assay with BT-549 breast, over 50 µM. Further, the TGI in the assay on CCRF-CEM leukemia, in the assay with SNB-19 CNS, with SK-MEL-28 melanoma and with OVCAR-3 ovarian was over 50 µM in each case.

Turning to `C=CCN(c1cc(OCc2ccccc2)c(NC(C)=O)cc1[N+](=O)[O-])S(C)(=O)=O`, the TGI with SF-295 CNS is 60.4 µM; in the assay with TK-10 renal, over 100 µM; in the assay with PC-3 prostate it was over 100 µM; in the assay with MDA-MB-231 breast, 29.5 µM; with HT29 colon, over 100 µM; in the assay with BT-549 breast it was 93.3 µM. In addition, the TGI was over 100 µM with CCRF-CEM leukemia, 36.1 µM in the assay with SNB-19 CNS, over 100 µM with SK-MEL-28 melanoma and over 100 µM with OVCAR-3 ovarian.

In the case of `COC(=O)c1ccccc1C#CCCCOS(C)(=O)=O`, the TGI with SF-295 CNS, in the assay with TK-10 renal, in the assay with PC-3 prostate, in the assay on MDA-MB-231 breast, with HT29 colon and in the assay with BT-549 breast was over 10 µM throughout. Also, the TGI in the assay with CCRF-CEM leukemia, with SNB-19 CNS, with SK-MEL-28 melanoma and with OVCAR-3 ovarian was over 10 µM throughout.

For the molecule `C1#Cc2ccccc2OCCOc2ccccc2C#Cc2ccccc2OCCOc2ccccc21`, the TGI in the assay on SF-295 CNS is over 100 µM; in the assay on TK-10 renal, over 100 µM; in the assay on PC-3 prostate, over 100 µM; in the assay on MDA-MB-231 breast it was 54.9 µM; in the assay on HT29 colon, over 100 µM; with BT-549 breast it was 81.9 µM. The TGI with CCRF-CEM leukemia was 36.3 µM; in the assay with SNB-19 CNS it was over 100 µM; in the assay on SK-MEL-28 melanoma, over 100 µM; in the assay with OVCAR-3 ovarian it was 39.3 µM.

With `CO/C(=N\N=C\c1ccc(Cl)cc1Cl)c1ccncc1`, the TGI with SF-295 CNS, in the assay on TK-10 renal, in the assay with PC-3 prostate, in the assay with MDA-MB-231 breast, with HT29 colon and in the assay with BT-549 breast was over 10 µM in each case. The TGI with CCRF-CEM leukemia, in the assay with SNB-19 CNS and in the assay with OVCAR-3 ovarian was over 10 µM each time.

In the case of `Cc1ccc(-n2c(O)c3c(N)n[nH]c3c(C#N)c2=O)cc1`, the TGI in the assay with TK-10 renal, in the assay on PC-3 prostate, with MDA-MB-231 breast, in the assay with HT29 colon, in the assay with BT-549 breast and in the assay on CCRF-CEM leukemia was over 100 µM in each case. Also, the TGI with SNB-19 CNS, in the assay with SK-MEL-28 melanoma and in the assay on OVCAR-3 ovarian was over 100 µM throughout.
